pIC50: −log10 of the molar value. ≈ marks a conversion by molar mass, not a printed value.
What was measured:
T. equiperdum = assay: Resazurin-based (Alamar blue) drug sensitivity assay; conditions: Trypanosoma equiperdum, read-out: IC50 T. equiperdum
[1] = test system: Escherichia coli (ATCC 25922); assay: Antibacterial MIC, broth microdilution (CLSI); assay type: cell-based; conditions: Escherichia coli, ATCC25922; read-out: MIC80 E. coli
[2] = test system: human respiratory syncytial virus (RSV A2); assay: Viral ToxGlo assay, Hep-2 cells; assay type: cell-based; conditions: 72 h
[3] = test system: Human rhinovirus (HRV-14); assay: Viral ToxGlo assay, Hela Ohio cells; assay type: cell-based; conditions: M-HeLa, 72 h
[4] = test system: PolyAU double stranded RNA; assay: Fluorescence intercalator displacement (FID) assay, SYBR-safe probe; conditions: 20 μM compound, 30° C., lower % = stronger binding
Procedure, shortened: (§1)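 Compound at 20 μM mixed with 3.76 ng/mL polyAU dsRNA or salmon genomic dsDNA and 12500-fold diluted SybrSafe in 1 mM phosphate buffer pH 7.4, then heated to 30 °C and fluorescence read. Reduction is expressed as normalised %, with nucleic acid plus probe as maximum and probe alone as minimum.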

[5] = test system: Genomic double stranded DNA (salmon); assay: as above; conditions: 20 μM compound, 30° C., lower % = stronger binding
Procedure, shortened: as §1

[6] = test system: Rhizopus arrhizus (NEQAS12.35321); conditions: read-out: MIC99 Rhizopus arrhizus
[7] = test system: A. fumigatus A1160 (MFIG001); conditions: Aspergillus fumigatus, read-out: MIC99 A. fumigatus A1160
[8] = test system: Staphylococcus aureus (ATCC 43300); assay: Antibacterial MIC, broth microdilution (CLSI); assay type: cell-based; conditions: for S. aureus Selectivity Indices, Group: Alkyl Amidines and NH Pyrroles; for MIC80: Staphylococcus aureus, ATCC43300, read-out: MIC80 S. aureus
C. neoformans (F10025) = conditions: Cryptococcus neoformans, read-out: MIC99 C. neoformans
Candida auris (H.17.157) = conditions: for MIC99: Candidozyma auris, read-out: MIC99 Candida auris; for C. auris Selectivity Indices, Group: Alkyl Amidines and NH Pyrroles
T. evansi AntTat 3/3 = assay: Resazurin-based (Alamar blue) drug sensitivity assay; conditions: read-out: IC50 T. evansi
Description: A detailed description of the procedure for evaluating activity against trypanosomes, using an Alamar Blue (resazurin) assay, is described below.
The bloodstream form (BSF) T. b. brucei s427 (see De Koning, H. P. et al., Mol. Biochem. Parasitol. 2000, 106, 181-185), T. evansi AntTat 3/3 (see Dean, S. et al., Proc. Natl. Acad. Sci. USA, 2013, 110, 14741-14746), and T. equiperdum (see Stewart, M. L. et al., Eukaryot. Cell, 2010, 9, 336-343) were cultured in HMI-9 medium (Life Technologies, Paisley, United Kingdom) supplemented with 10% heat inactivated Foetal Bovine Serum (FBS (PAA Laboratories Linz, Austria)), 14 μL/L β-mercaptoethanol (BDH, Dorset, UK), and 3.0 g/L NaHCO3 (Sigma-Aldrich) and adjusted to pH 7.4. These cell lines were maintained at 37° C. in a humidified, 5% CO2 environment.
A resazurin-based (Alamar blue) drug sensitivity assay was used to assess and compare the activity of standard trypanocides in the different cell lines investigated (see Gould, M. K. et al., Anal. Biochem., 2008, 382, 87-93). Briefly, 23 doubling dilutions of the test compound of the invention, starting at 100 μM, and a compound-free control were prepared in 100 μL medium in a 96-well white plate (Greiner Bio-one, Frickenhausen, Germany). The cells were adjusted to 2×10^4 cells/mL for T. b. brucei and T. equiperdum; 4×10^4 cells/mL for T. evansi; and 5×10^5 cells/mL for T. congolense in the appropriate medium. 100 μL of the adjusted cells was then added to the wells containing drug dilutions and incubated for 48 h under respective culture condition. Thereafter, 20 μL of 125 mg/mL resazurin sodium dye was added, and the plate was incubated for a further 24 h.

[9] = test system: Enterococcus faecalis (ATCC 51299); assay: Antibacterial MIC, broth microdilution (CLSI); assay type: cell-based; conditions: for MIC80: Enterococcus faecalis, ATCC51299, read-out: MIC80 E. faecalis
Influenza (H1N1) = assay: Accelerated Viral Neuraminidase Inhibition Assay (AVINA), A549 cells; assay type: cell-based; conditions: Influenza A virus, 72 h
[10] = test system: Candida glabrata (ACPF3309); conditions: for MIC99: Nakaseomyces glabratus, read-out: MIC99 Candida glabrata; for C. glabrata Selectivity Indices, Group: Alkyl Amidines and NH Pyrroles
A. flavus (CBS 128.202) = conditions: Aspergillus flavus, CBS128, read-out: MIC99 A. flavus
Description: The Minimum Inhibitory Concentration (MIC, at 99% inhibition) of the compounds was determined using the broth microdilution method as recommended by EUCAST (EUCAST Definitive Document E.DEF 9.3.2, Method for the determination of broth dilution minimum inhibitory concentrations of antifungal agents for conidia forming moulds and EUCAST Definitive Document E.DEF 7.3.2 Method for the determination of broth dilution minimum inhibitory concentrations of antifungal agents for yeasts).

C. albicans (ATCC 90028) = conditions: Candida albicans, ATCC90028, read-out: MIC99 C. albicans
[11] = test system: SARS-CoV-2 (hCoV-19/Australia/VIC01/2020); assay: SARS-CoV-2 microplaque inhibition assay in Vero-E6 cells; assay type: cell-based
[12] = SI, IC50 (μM)/MIC80 (μM), HEK293 cytotoxicity
[13] = SI, IC50 (μM)/MIC99 (μg/mL), HEK293 cytotoxicity
[14] = SI, IC50 (μM)/MIC99 (μg/mL), HEK293 cytotoxicity, numeric value
[15] = SI, IC50 (μM)/MIC80 (μM), HEK293 cytotoxicity, numeric value

Compound	pIC50 (T. equiperdum)	MIC80 [1] [µM]	inhibition at 20 µM [2] [%]	inhibition at 20 µM [3] [%]	% Normalised Fluorescence with polyAU RNA [4] [%]	% Normalised Fluorescence with gDNA [5] [%]	MIC99 [6] [µg/mL]	MIC99 [7] [µg/mL]	S. aureus Selectivity Indices, Group [8, 12]	MIC80 [8] [µM]	MIC99 (C. neoformans (F10025)) [µg/mL]	MIC99 (Candida auris (H.17.157)) [µg/mL]	pIC50 (T. evansi AntTat 3/3)	MIC80 [9] [µM]	inhibition at 20 µM (Influenza (H1N1)) [%]	MIC99 [10] [µg/mL]	C. glabrata Selectivity Indices, Group [10, 13]	C. auris Selectivity Indices, Group (Candida auris (H.17.157); [13])	other results
Cn1cc(NC(=O)c2ccc(/C=C/c3ccc4nonc4c3)cc2)cc1C(=O)Nc1c[nH]c(C(=O)NCCC(=N)N)c1 [IIIa3, (E)-N-(5-((3-amino-3-iminopropyl)carbamoyl)-1H-pyrrol-3-yl)-4-(4-(2-(benzo[c][1,2,5]oxadiazol-5-yl)vinyl)benzamido)-1-methyl-1H-pyrrole-2-carboxamide]	7.00 to 8.00	> 100	> 50	25 to 50	3	27	> 50	5 to 25 (≈ 8.84 to 44.2 µM)	B (Group B: 3 < SI <= 5)	5 to 25 (≈ 2.83 to 14.1 µg/mL)	< 5	> 50	7.00 to 8.00	5 to 25 (≈ 2.83 to 14.1 µg/mL)	> 50	< 5	B (Group B: 12 < SI <= 20)		
CN(C)c1ccc(/C=C/c2ccc(C(=O)Nc3c[nH]c(C(=O)Nc4cc(C(=O)NCCC(=N)N)n(C)c4)c3)cn2)cc1 [IIIa5, (E)-N-(5-((5-((3-amino-3-iminopropyl)carbamoyl)-1-methyl-1H-pyrrol-3-yl)carbamoyl)-1H-pyrrol-3-yl)-6-(4-(dimethylamino)styryl)nicotinamide]	6.00 to 7.00	> 100		> 50	3	11	5 to 25 (≈ 8.81 to 44 µM)	5 to 25 (≈ 8.81 to 44 µM)	C (Group C: 5 < SI <= 10)	< 5		5 to 25 (≈ 8.81 to 44 µM)		5 to 25 (≈ 2.84 to 14.2 µg/mL)	25 to 50	5 to 25 (≈ 8.81 to 44 µM)		D (Group D SI > 3)	MIC99 (A. flavus (CBS 128.202)): 5 to 25 µg/mL (≈ 8.81 to 44 µM); C. auris Selectivity Index (SI) (Candida auris (H.17.157); [14]): 5; MIC99 (C. albicans (ATCC 90028)): < 5 µg/mL; SARS-CoV-2 Selectivity Indices, Group ([11]; SI, IC50 (μM)/IC50 (μM), HEK293 cytotoxicity, Alkyl Amidines and NH Pyrroles): D (Group D: SI > 25); SARS-CoV-2 Selectivity Index (SI) ([11]; SI, IC50 (μM)/IC50 (μM), HEK293 cytotoxicity, numeric value): 39; pIC50 ([11]; Severe acute respiratory syndrome coronavirus 2, Vero C1008, plaque inhibition, Vero-E6 cells, read-out: IC50 SARS-CoV-2): > 5.70
N=C(N)CCNC(=O)c1cc(NC(=O)c2cc(NC(=O)c3ccc(/C=C/c4cnc5ccccc5c4)cc3)c[nH]2)c[nH]1 [IIIa6, (E)-N-(3-amino-3-iminopropyl)-4-(4-(4-(2-(quinolin-3-yl)vinyl)benzamido)-1H-pyrrole-2-carboxamido)-1H-pyrrole-2-carboxamide]	> 8.00	25 to 100 (≈ 14 to 56.1 µg/mL)	> 50	> 50	29	18	25 to 50 (≈ 44.6 to 89.2 µM)	5 to 25 (≈ 8.92 to 44.6 µM)	D (D: SI > 10)	< 5	< 5	5 to 25 (≈ 8.92 to 44.6 µM)	7.00 to 8.00	< 5	> 50	< 5	D (Group D: SI > 50)	D (Group D SI > 3)	S. aureus Selectivity Index (SI) [8, 15]: 14; E. faecalis Selectivity Indices, Group ([9]; SI, IC50 (μM)/MIC80 (μM), HEK293 cytotoxicity, Alkyl Amidines and NH Pyrroles): D (D: SI > 10); E. faecalis Selectivity Index (SI) [9, 15]: 14; C. glabrata Selectivity Index (SI) [10, 14]: 109

— US20250313546A1, “NUCLEIC ACID BINDERS” (UNIVERSITY OF STRATHCLYDE, priority 2022, published 2025)
